Data taken from patent US20260049085A1, “CYCLIC COMPOUNDS AND METHODS OF USING SAME” (SCHRÖDINGER, INC., priority 2022, published 2026).

Each compound was assayed against T1, full-length MALT1 protein His-MALT1(1-824) (Homo sapiens, UniProt Q9UDY8) (assay: MALT1 protease assay (Ac-LRSR-AMC tetrapeptide substrate, fluorescence)). Conditions: 1 nM MALT1, 25 μM Ac-LRSR-AMC, 2 h pre-incubation, 8 hr incubation at RT.
T1 construct: full-length MALT1 protein His-MALT1(1-824); His (N); made in house; host or cells: baculovirus-infected insect cells
T1 sequence (Q9UDY8 1-824): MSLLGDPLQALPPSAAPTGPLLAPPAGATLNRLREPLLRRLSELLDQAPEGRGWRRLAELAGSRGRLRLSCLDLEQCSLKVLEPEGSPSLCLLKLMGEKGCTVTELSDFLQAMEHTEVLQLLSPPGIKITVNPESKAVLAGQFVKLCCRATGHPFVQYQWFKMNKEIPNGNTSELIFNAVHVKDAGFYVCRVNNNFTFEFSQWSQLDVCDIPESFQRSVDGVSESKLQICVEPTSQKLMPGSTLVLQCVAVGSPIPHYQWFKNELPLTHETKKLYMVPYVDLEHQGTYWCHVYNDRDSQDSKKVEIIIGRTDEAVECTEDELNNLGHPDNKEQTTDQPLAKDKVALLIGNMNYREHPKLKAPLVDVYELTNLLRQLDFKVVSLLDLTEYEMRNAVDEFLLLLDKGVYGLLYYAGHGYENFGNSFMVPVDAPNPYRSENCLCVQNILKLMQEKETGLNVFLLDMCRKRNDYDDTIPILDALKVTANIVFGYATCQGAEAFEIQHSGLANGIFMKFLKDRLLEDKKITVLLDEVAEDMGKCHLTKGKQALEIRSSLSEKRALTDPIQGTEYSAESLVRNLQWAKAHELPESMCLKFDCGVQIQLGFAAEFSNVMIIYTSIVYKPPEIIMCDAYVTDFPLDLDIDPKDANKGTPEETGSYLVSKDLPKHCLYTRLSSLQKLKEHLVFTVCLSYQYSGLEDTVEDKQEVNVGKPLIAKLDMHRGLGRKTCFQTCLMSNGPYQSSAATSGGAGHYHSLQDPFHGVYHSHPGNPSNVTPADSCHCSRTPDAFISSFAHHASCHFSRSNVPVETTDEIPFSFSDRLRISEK
Assay type: biochemical
In short: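 Full-length His-MALT1(1-824) from baculovirus-infected insect cells (1 nM) was pre-incubated 2 h at RT with compounds (0.1% DMSO), then 25 μM Ac-LRSR-AMC added in 50 mM Tris pH 7.5, 600 mM sodium citrate, 1 mM DTT, 1 mM EDTA, 0.05% BSA. Fluorescence (ex 355/em 460 nm) read after 8 h at RT; IC50 by non-linear regression of % remaining activity.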
With `CC(C)n1cc([C@]2(C)C[C@@H](C(=O)Nc3cnc(-n4nccn4)c(Cl)c3)c3cnc4cc(F)nn4c32)cn1` (single isomer, unassigned) [Example 49] the IC50 was ≥ 1000 nM. In the case of `C[C@]1(c2cnn(CC3CC3)c2)C[C@H](C(=O)Nc2cnc(-n3nccn3)c(Cl)c2)c2cnc3cc(F)nn3c21` (single isomer, unassigned) [Example 98], the IC50 is reported as < 10 nM. `CC(F)(F)n1ccc([C@]2(C)C[C@H](C(=O)Nc3cnc(-c4ncccn4)c(C(F)(F)F)c3)c3cnc4cc(F)nn4c32)n1` (single isomer, unassigned) [Example 166, (cis)-8-(1-(1,1-difluoroethyl)-1H-pyrazol-3-yl)-2-fluoro-8-methyl-N-(6-(pyrimidin-2-yl)-5-(trifluoromethyl)pyridin-3-yl)-7,8-dihydro-6H-cyclopenta[e]pyrazolo[1,5-a]pyrimidine-6-carboxamide] showed an IC50 of 100 to 1000 nM. Compound `Cc1cc2ncc3c(n2n1)[C@@](C)(c1ccn(C(F)F)n1)C[C@@H]3C(=O)Nc1cnc(-c2ncccn2)c(C(F)(F)F)c1` (racemic) [Example 195, (tras)-8-(1-(difluoromethyl)-1H-pyrazol-3-yl)-2,8-dimethyl-N-(6-(pyrimidin-2-yl)-5-(trifluoromethyl)pyridin-3-yl)-7,8-dihydro-6H-cyclopenta[e]pyrazolo[1,5-a]pyrimidine-6-carboxamide] has an IC50 of 10 to 100 nM. With `C[C@@]1(c2cnn(C(F)F)c2)C[C@@H](C(=O)Nc2cnc(-c3ncncc3F)c(Cl)c2)c2cnc3cc(F)nn3c21` (single isomer, unassigned) [Example 157] the IC50 was ≥ 1000 nM. `C[C@@]1(c2cnn(C3CC3)c2)C[C@H](C(=O)Nc2cnc(-n3nccn3)c(Cl)c2)c2cnc3cc(F)nn3c21` (single isomer, unassigned) [Example 30] was tested, and the IC50 was 10 to 100 nM. In the case of `CC(F)(F)n1ccc([C@]2(C)C[C@@H](C(=O)Nc3cnc(-c4ncccn4)c(C(F)(F)F)c3)c3cnc4cc(F)nn4c32)n1` (single isomer, unassigned) [Example 165, (trans)-8-(1-(1,1-difluoroethyl)-1H-pyrazol-3-yl)-2-fluoro-8-methyl-N-(6-(pyrimidin-2-yl)-5-(trifluoromethyl)pyridin-3-yl)-7,8-dihydro-6H-cyclopenta[e]pyrazolo[1,5-a]pyrimidine-6-carboxamide], the IC50 is reported as ≥ 1000 nM. In the case of `Cn1ccc([C@]2(C)C[C@H](C(=O)Nc3cnc(OC(F)F)c(C#N)c3)c3cnc4cc(F)nn4c32)n1` (single isomer, unassigned) [Example 70], the IC50 is reported as 100 to 1000 nM. `C[C@]1(c2cnn(CC(F)(F)F)c2)C[C@H](C(=O)Nc2cnc(-n3nccn3)c(Cl)c2)c2cnc3cc(F)nn3c21` (single isomer, unassigned) [Example 84] was tested, and the IC50 was < 10 nM. For `Cn1cc([C@]2(C)C[C@@H](C(=O)Nc3ccnc(C(F)(F)F)c3)c3cnc4cc(Cl)nn4c32)cn1` (single isomer, unassigned) [Example 45], the IC50 was ≥ 1000 nM. With `C[C@]1(c2cnn(C(F)F)n2)C[C@H](C(=O)Nc2cnc(-n3nccn3)c(Cl)c2)c2cnc3cc(F)nn3c21` (single isomer, unassigned) [Example 177] the IC50 was < 10 nM. With `Cn1ccc([C@@]2(C)C[C@@H](C(=O)Nc3cnc(-n4nccn4)c(Cl)c3)c3cnc4cc(Cl)nn4c32)n1` (single isomer, unassigned) [Example 79] the IC50 was 100 to 1000 nM. In the case of `CC(C)n1cc([C@@]2(C)C[C@H](C(=O)Nc3cnc(-n4nccn4)c(Cl)c3)c3cnc4cc(F)nn4c32)cn1` (single isomer, unassigned) [Example 48], the IC50 is reported as < 10 nM. For `Cn1ccc([C@@]2(C)C[C@H](C(=O)Nc3cnc(-n4nccn4)c(Cl)c3)c3cnc4cc(Cl)nn4c32)n1` (single isomer, unassigned) [Example 76], the IC50 was < 10 nM. In the case of `C[C@@]1(c2ccn(C3CC3)n2)C[C@@H](C(=O)Nc2cnc(-n3nccn3)c(Cl)c2)c2cnc3cc(F)nn3c21` (single isomer, unassigned) [Example 153], the IC50 is reported as ≥ 1000 nM. Work on `Cn1cc([C@]2(C)C[C@H](C(=O)Nc3cnc(OC(F)F)c(C#N)c3)c3cnc4cc(F)nn4c32)cn1` (single isomer, unassigned) [Example 42] yielded an IC50 of 100 to 1000 nM. `Cn1cc([C@]2(C)C[C@H](C(=O)Nc3cnc(-n4nccn4)c(Cl)c3)c3cnc4c(F)c(F)nn4c32)cn1` (single isomer, unassigned) [Example 14] gave an IC50 of 100 to 1000 nM. `C[C@]1(c2cnn(C(F)(F)F)c2)C[C@H](C(=O)Nc2cnc(-n3nccn3)c(Cl)c2)c2cnc3cc(F)nn3c21` (single isomer, unassigned) [Example 102] was tested, and the IC50 was 10 to 100 nM. `C[C@]1(c2cnn(C(F)F)c2)C[C@H](C(=O)Nc2cnc(-c3ncncc3F)c(Cl)c2)c2cnc3cc(F)nn3c21` (single isomer, unassigned) [Example 156] showed an IC50 of 10 to 100 nM. In the case of `CC(F)(F)n1ccc([C@@]2(C)C[C@@H](C(=O)Nc3cnc(-c4ncccn4)c(C(F)(F)F)c3)c3cnc4cc(F)nn4c32)n1` (single isomer, unassigned) [Example 167, (cis)-8-(1-(1,1-difluoroethyl)-1H-pyrazol-3-yl)-2-fluoro-8-methyl-N-(6-(pyrimidin-2-yl)-5-(trifluoromethyl)pyridin-3-yl)-7,8-dihydro-6H-cyclopenta[e]pyrazolo[1,5-a]pyrimidine-6-carboxamide], the IC50 is reported as 100 to 1000 nM. With `CC1(c2cnn(C(F)F)c2)CC(C(=O)Nc2cnc(N=S3(=O)CCC3)c(Cl)c2)c2cnc3cc(F)nn3c21` (single isomer, unassigned) [Example 96] the IC50 was 10 to 100 nM. Compound `C[C@@]1(c2cnn(C3CC3)c2)C[C@H](C(=O)Nc2cnc(OC(F)F)c(C#N)c2)c2cnc3cc(F)nn3c21` (single isomer, unassigned) [Example 74] has an IC50 of 10 to 100 nM. For `C[C@]1(c2ccn(C3CC3)n2)C[C@@H](C(=O)Nc2cnc(-n3nccn3)c(Cl)c2)c2cnc3cc(F)nn3c21` (single isomer, unassigned) [Example 155], the IC50 was ≥ 1000 nM. `Cn1cc([C@]2(C)C[C@H](C(=O)Nc3cnc(OC(F)(F)F)c(C#N)c3)c3cnc4cc(F)nn4c32)cn1` (single isomer, unassigned) [Example 54] showed an IC50 of 100 to 1000 nM. `C[C@]1(c2cnn(C3CC3)c2)C[C@H](C(=O)Nc2cnc(OC(F)F)c(C#N)c2)c2cnc3cc(F)nn3c21` (single isomer, unassigned) [Example 72] was tested, and the IC50 was < 10 nM. In the case of `Cn1nccc1[C@]1(C)C[C@@H](C(=O)Nc2cnc(-n3nccn3)c(Cl)c2)c2cnc3cc(F)nn3c21` (single isomer, unassigned) [Example 65], the IC50 is reported as ≥ 1000 nM. `Cn1cc([C@]2(C)C[C@@H](C(=O)Nc3cnc(-n4nccn4)c(Cl)c3)c3cnc4cc(F)nn4c32)cn1` (single isomer, unassigned) [Example 2] was tested, and the IC50 was ≥ 1000 nM. `C[C@@]1(c2ccn(C(F)F)n2)C[C@@H](C(=O)Nc2cnc(-c3ncccn3)c(Cl)c2)c2cnc3cc(F)nn3c21` (single isomer, unassigned) [Example 141] was tested, and the IC50 was ≥ 1000 nM. In the case of `CC(F)(F)n1ccc([C@]2(C)C[C@@H](C(=O)Nc3cnc(-c4ncccn4)c(Cl)c3)c3cnc4cc(F)nn4c32)n1` (single isomer, unassigned) [Example 169], the IC50 is reported as ≥ 1000 nM. For `Cc1cc(NC(=O)[C@@H]2C[C@@](C)(c3cnn(C)c3)c3c2cnc2cc(F)nn32)cnc1-n1nccn1` (single isomer, unassigned) [Example 57, trans-2-fluoro-8-methyl-8-(1-methyl-1H-pyrazol-4-yl)-N-(5-methyl-6-(2H-1,2,3-triazol-2-yl)pyridin-3-yl)-7,8-dihydro-6H-cyclopenta[e]pyrazolo[1,5-a]pyrimidine-6-carboxamide], the IC50 was ≥ 1000 nM. In the case of `C[C@@]1(c2cnn(C(F)F)c2)C[C@H](C(=O)Nc2cnc(-n3nccn3)c(C(F)(F)F)c2)c2cnc3cc(F)nn3c21` (single isomer, unassigned) [Example 82], the IC50 is reported as 10 to 100 nM. In the case of `CC1(n2ccc([C@]3(C)C[C@H](C(=O)Nc4cnc(-c5ncccn5)c(C(F)(F)F)c4)c4cnc5cc(F)nn5c43)n2)CC1` (single isomer, unassigned) [Example 160], the IC50 is reported as 100 to 1000 nM. With `C[C@@]1(c2cnn(C(F)F)c2)C[C@@H](C(=O)Nc2cnc(OC(F)F)c(C#N)c2)c2cnc3cc(F)nn3c21` (single isomer, unassigned) [Example 93] the IC50 was ≥ 1000 nM. In the case of `Cn1ccc([C@]2(C)C[C@H](C(=O)Nc3cnc(-n4nccn4)c(Cl)c3)c3cnc4cc(F)nn4c32)n1` (single isomer, unassigned) [Example 34], the IC50 is reported as 100 to 1000 nM. In the case of `C[C@@]1(c2ccn(C(F)F)n2)C[C@H](C(=O)Nc2cnc(-c3ncccn3)c(Cl)c2)c2cnc3cc(F)nn3c21` (single isomer, unassigned) [Example 142], the IC50 is reported as ≥ 1000 nM.
